From a melting point compilation (Tetko et al.; mined from patent text by program, amines drawn as free bases though some values may be those of a salt) come the findings set out here.

As usually defined, the melting point is the temperature of the solid-liquid transition.

For the molecule `Oc1ccc2c(c1)CCCC(c1ccccc1)=C2c1ccc(OCCCCCSCc2ccccc2)cc1`, the melting point lay in the range of 178 to 186 °C.

On to `CNC(=O)NC(NC(=O)C(Cl)(Cl)Cl)C(Cl)(Cl)Cl` (centres undefined), for which the melting point fell in the range of 209 to 210 °C.

On to `OCc1ccc(OCc2ccccc2)cc1OCc1ccccc1`, for which the melting point lay within 84 to 85 °C.

`O=C(O)c1ccc(N2C3CCC2CN(CC(=O)N2CC=C(c4cccc5ccsc45)CC2)C3)nc1` gave a melting point of 121 to 122 °C.

`CC1(CCc2ccccc2)OC(=O)CC(=O)O1` yielded a melting point of 63 to 65 °C.

Molecule `CN1CC[C@@H](c2c(O)cc(O)c3c(=O)cc(-c4cccc(F)c4)oc23)[C@@H]1CO` displayed a melting point of 218 to 220 °C.

`COC(=O)CCCCCCCn1cc(-c2ccccc2)c(-c2ccccc2)nc1=O` had a melting point of 80 to 83 °C.

In turn, `O=C(O)CCc1ccc(OCCCc2cc(-c3ccc(C(F)(F)F)cc3)no2)cc1` showed a melting point of 174 to 175 °C.

In the case of `CCCCc1nn(-c2cc([N+](=O)[O-])ccc2Cl)c(=O)n1Cc1ccc(-c2cc(CCC)ccc2S(=O)(=O)NC(C)(C)C)cc1F`, the melting point lay within 84 to 86 °C.

The molecule `CCCCCCCN(CC)CCC(O)c1ccc(NS(C)(=O)=O)cc1` (centres undefined) yielded a melting point of 74 to 75 °C.

Regarding `O=[N+]([O-])c1ccccc1C(=C(Br)Br)c1ccc(F)cc1`, the melting point was in the range of 99 to 100 °C.

With `CC(C)(C)CCN1C(=O)C(NC(=O)Oc2ccccc2)C(=O)N(c2ccccc2F)c2ccccc21` (centres undefined), the melting point lay within 199 to 200 °C.

Consider `Cn1cc(-c2cccc(Cl)c2)c(=O)c(-c2cccc(Br)c2)c1`, for which the melting point came to 192 °C.

In turn, `Ic1ccc(N2CCCC2)cc1` returned a melting point of 99.7 to 99.8 °C.

`CN1Cc2c(CO)ncn2-c2ccccc2C1=O` displayed a melting point of 219 to 221 °C.

Consider `CCOC(=O)c1cc(C)c(Cl)nc1Nc1ccccc1F`, for which the melting point is 122 to 126 °C.

`CC(C)[C@H](NC(=O)N(C)Cc1ccccn1)C(=O)N[C@@H](Cc1ccccc1)[C@@H](O)C[C@H](Cc1ccccc1)NC(=O)OCc1cccnc1`: the melting point is 69 to 71 °C.

On to `ClCc1csc(/C=C/c2ccccc2)n1`, for which the melting point was 88 to 89 °C.

Turning to `Cc1c2c(cn1C)NC(=O)C(O)N=C2c1ccccc1` (centres undefined), the melting point came to 243 °C.

As for `CC(C)Cn1c(CNC(=O)OC(C)(C)C)c(-c2ccc(Cl)cc2)c2cc(O)ccc2c1=O`, the melting point was 220 to 221 °C.

On to `O=C1Cc2cc(C(F)(F)F)ccc2N1`, for which the melting point lay within 188 to 190 °C.

Consider `CC(C)C1(C)NC(c2ncccc2CO)=NC1=O` (centres undefined), for which the melting point lay in the range of 145 to 149 °C.

`Cc1noc(-c2cc(-c3ccccc3)c(=O)n3c2-c2sccc2SCC3)n1` yielded a melting point of 183 to 185 °C.

On to `COCCc1nc2cnc3cc(OCc4ccccc4)ccc3c2n1CC(C)(C)O`, for which the melting point is 170 to 172 °C.

Consider `CCOC(=O)c1c(N2CCN(C)CC2)c2ccccc2n(C)c1=O`, for which the melting point lay within 144 to 148 °C.

In the case of `Cn1ncnc1COc1nn2c(-c3ccccc3)nnc2cc1N1CCOCC1`, the melting point fell in the range of 210 to 211 °C.

Regarding `CC12CCC(O)CC1=CCC1C2CCC2(C)C(c3ccco3)=CCC12` (centres undefined), the melting point lay within 105 to 116 °C.

In turn, `O=C(/C=C/c1c(F)cccc1Cl)/C=C/c1c(F)cccc1Cl` had a melting point of 144 °C.

As to `Cc1cccc(C)c1N1C(=N)C(C)N(c2c(C)cccc2C)C1C(=O)OCc1ccc(Cl)cc1` (centres undefined), the melting point was in the range of 140 to 142 °C.

For the molecule `O=c1ccc2cnc(Nc3ccccc3)nc2n1C1CCCC1`, the melting point lay within 188 to 192 °C.

Molecule `Cn1c(=O)c2conc2n(C)c1=O` gave a melting point of 170 to 171 °C.

Turning to `OCc1cnoc1-c1ccc(F)c(Br)c1`, the melting point lay in the range of 134 to 135 °C.

In turn, `CC(=O)OCc1cc(C(C)=O)ccc1OC(C)=O` showed a melting point of 47 to 48 °C.

For the molecule `CCc1cccc(C)c1CNc1cc(C(=O)O)cn2nc(C)nc12`, the melting point was 264 °C.

Take `CCOC(=O)O[C@H](CCCc1ccc(OCc2nc(-c3ccccc3)sc2C)cc1)C(N)=O`: the melting point is 130 to 131 °C.

For `Fc1cccc(F)c1Cn1c(-c2c(F)cccc2F)nc2c(CCl)cccc21`, the melting point lay within 143 to 144 °C.

The molecule `CC(C)NCC(O)COc1ncc(Br)nc1N(C)C` (centres undefined) registered a melting point of 130 to 131 °C.

`O=C1C(=Cc2cccc(C(F)(F)F)c2)SC(=S)N1N=c1sc2ccccc2s1` showed a melting point of 268 to 269 °C.

Consider `O=CNC1=NN(c2cccc(Cl)c2)CC1`, for which the melting point lay in the range of 143 to 145 °C.

As for `CON=C1C=CC=CC1CC(=O)OC` (centres undefined), the melting point is 96 to 97 °C.

Take `CC[C@@H](C=O)NC(=O)OC(C)(C)C`: the melting point is 39 to 43 °C.

The molecule `CC(C)CCc1cc(C(O)=S)cc(N)c1C(=O)c1ccccc1` registered a melting point of 141 to 142 °C.

The molecule `N=C(O)c1cc(C(O)=NCCS)c(C(=O)O)cc1C(=O)O` registered a melting point of 300 °C.

Turning to `CCOC(=O)C1=C(C)NC(C(OCC)OCC)=C(C(=O)OCC)C1c1ccccc1Cl` (centres undefined), the melting point was 75 to 77 °C.

On to `O=C(CCCN1CC=C(c2noc(C3CC3)n2)CC1)c1ccc(F)cc1`, for which the melting point lay in the range of 67 to 68 °C.

`O=C(O)c1oc2ccc(Cl)cc2c1-c1ccccc1C(F)(F)F` gave a melting point of 71 to 72 °C.

On to `O=C1CNN=C(c2ccccn2)N1`, for which the melting point lay in the range of 138 to 139 °C.

Molecule `CN(C=CC(=Nc1ccccc1)Oc1ccccc1)c1ccccc1` displayed a melting point of 130 to 132 °C.

Consider `CCN(CC)c1ccc(-c2cc(-c3ccc(C(=O)O)cc3)ccc2OCC(C)O)cc1C(C)(C)C` (centres undefined), for which the melting point worked out at 193 °C.

In turn, `O=C(COc1cccc(CCNS(=O)(=O)c2ccc(Cl)cc2)c1)N1CCOCC1` yielded a melting point of 110 to 111 °C.

On to `O=Cc1ccc(-c2ccc(-c3cn([C@H]4CN5CCC4CC5)nn3)cc2)s1`, for which the melting point is 228 °C.

In the case of `CNc1c(F)cc2c(=O)c(C(=O)O)cn(-c3cc(N)c(F)cc3Br)c2c1Cl`, the melting point was more than 280 °C.

Regarding `CC(C)(C)OC(=O)Nc1sc(-c2cncc(F)c2)nc1I`, the melting point was 148 to 149 °C.

Molecule `CC(C)C[C@H](N[C@H](CC(C)C)C(=O)OCc1ccccc1)C(=O)N[C@@H](Cc1ccccc1)C(N)=O` registered a melting point of 145 to 146 °C.

For the molecule `O=C1CC(COC(c2ccccc2)(c2ccccc2)c2ccccc2)=NC=C1OCc1ccccc1`, the melting point lay in the range of 233 to 235 °C.

Regarding `NC(=O)CCC(O)c1ccccc1` (centres undefined), the melting point is 74 to 75 °C.

Take `CN(CCc1cccc(O)c1)c1cnc(-c2ccccc2)c(-c2ccccc2)n1`: the melting point lay within 158 to 161 °C.

The molecule `NC(=O)c1[nH]c2ccccc2c1-c1ccc(NC(=O)Nc2ccccc2)cc1` displayed a melting point of 232 to 234 °C.

`O=C(O)Cc1ccc(CC2(CNS(=O)(=O)c3ccccc3)CCCC2)cc1` gave a melting point of 154 to 156 °C.

As for `CCOC(=O)c1cn(CC)c2cc(N3CCN(C)CC3)c(F)cc2c1=O`, the melting point lay in the range of 176 to 179 °C.

Molecule `O=C(N1CCc2cccc(O)c2CC1)C(F)(F)F` showed a melting point of 183 to 186 °C.

`COc1cc(O)c(C=NNC(=O)c2cc3ccccc3s2)c(OC)c1` registered a melting point of 205 °C.

As to `CC(=O)Nc1cccc(S(=O)(=O)N2[C@H](C)CN(CC(=O)Nc3ccccc3C)C[C@@H]2C)c1`, the melting point was in the range of 236 to 238 °C.

`O=CC(=Cc1cccc(OCc2ccc(Cl)cc2)c1)C(C=O)=Cc1cccc(OCc2ccc(Cl)cc2)c1` yielded a melting point of 193 to 194 °C.

Consider `CSC1=C([N+](=O)[O-])CCN1`, for which the melting point lay within 207 to 209 °C.

As for `O=C1c2ccccc2C(=O)N1CCCC(=O)N1c2ccccc2N(Cc2ccccc2)C(=O)[C@H]2CCC[C@H]21` (relative stereo), the melting point lay within 182 to 184 °C.

For the molecule `O=C(O)c1sc(Cl)nc1C(F)(F)F`, the melting point is 131 to 132 °C.

Consider `CCCCCCCCCCCCCCCCCC(=O)OC(CCc1cc(C(C)(C)C)c(O)c(C(C)(C)C)c1)CCc1cc(C(C)(C)C)c(O)c(C(C)(C)C)c1`, for which the melting point was 52 to 54 °C.

In turn, `O=C(NC1CCCCC1)NS(=O)(=O)c1ccc2c(c1)CCN(C(=O)N1CCCCC1)CC2` returned a melting point of 166 to 167 °C.

With `Cc1oc(-c2ccccc2)nc1COc1ccc(N)cn1`, the melting point was in the range of 106 to 107 °C.

Take `O=c1[nH]c2ccccc2c2c(C(O)CC3CCCCC3)n(-c3ccccc3)nc12` (centres undefined): the melting point lay within 254 to 259 °C.

`CCCN(CCCc1c[nH]c2c(Cl)cccc12)C1COc2c(F)ccc(C(N)=O)c2C1` (centres undefined) gave a melting point of 145 to 154 °C.

As for `CCNc1nc(SC)ncc1CNc1cc(OC)cc(OC)c1`, the melting point lay in the range of 100 to 105 °C.

For the molecule `CSc1ccc(-c2coc3ccc(-c4nnc(C)o4)cc23)cc1`, the melting point was in the range of 173 to 174 °C.

Regarding `CCC(=O)c1c(OC)cccc1OC`, the melting point was in the range of 43 to 45 °C.

Take `O=C1CCC(N2C(=O)c3cccc(NCc4cccs4)c3C2=O)C(=O)N1` (centres undefined): the melting point was 223 to 225 °C.

`O=C(CCc1ccc(I)cc1)Cn1ccnc1` yielded a melting point of 124 to 125 °C.

`CC(=O)c1ccsc1C(=O)O` gave a melting point of 155 to 156 °C.

As for `Oc1ccc(-n2ccc(Nc3ccccc3)n2)cc1`, the melting point was in the range of 182 to 185 °C.

With `Cc1ncc(CO)c(CN(C)C)c1O`, the melting point was in the range of 146 to 151 °C.

Molecule `Cc1nn(-c2ccccn2)c2c1c(=O)c1ccccc1n2C` yielded a melting point of 192 to 193 °C.

In the case of `O=C1c2cc3nnn(C4CC4)c(=O)c3cc2OC2CCCN12` (centres undefined), the melting point was 215 to 217 °C.

In the case of `Cc1c(C)c(N2C(=O)c3cc(Cl)c(Cl)cc3C2=O)c(C)c2c1OC(C)(C)C2c1ccccc1` (centres undefined), the melting point is 178 to 181 °C.

On to `CCOC(=O)C1CCc2c(oc3cc(NC(C)=O)ccc23)C1` (centres undefined), for which the melting point fell in the range of 115 to 116 °C.

In turn, `O=C(CCc1cnoc1-c1ccc(Cl)cc1)Nc1cccnc1` had a melting point of 197 to 198 °C.

In turn, `CC(=O)Nc1ccc2c(c1)CCCCC2=O` yielded a melting point of 105 °C.

Molecule `CCCCCCCCCCCCCCCCCC1CC(OC(=O)c2ccccc2)C(CC)C(=O)O1` (racemic) displayed a melting point of 64.5 to 66 °C.

The molecule `O=C(NC1CCOCC1)NC12CC3CC(CC(C3)C1)C2` showed a melting point of 239 to 242 °C.

In the case of `COC1OCC[C@@H]1NC(=O)[C@H](CC(C)C)NC(=O)[C@H](CC(C)C)NC(=O)c1ccc2c(c1)Nc1ccccc1O2` (some centres undefined), the melting point lay within 178 to 179 °C.
